Test results: publication PMC6182184 (2018)

Tested on: SRB-2 (RNA, aptamer) GGAACCUCGCUUCGGCGAUGAUGGAGAGGCGCAAGGUUAACCGCCUCAGGUUCC
Assay: fluorescence titration
Settings: 125 mM KCl, 5 mM MgCl2, 20 mM Hepes pH 7.4, 25 °C, RNA titrated

Row | SMILES | Kd (10 nM probe) | Kd (50 nM probe)
1 | CCN(CC)c1ccc2cc3ccc(=[N+](CC)CC)cc-3oc2c1 | 251 ± 50 nM | 
2 | CCN(CC)c1ccc2nc3ccc(N(CC)CC)cc3[o+]c2c1 |  | 260 ± 21 nM
3 | CN(C)c1ccc2cc3ccc(N(C)C)cc3[o+]c2c1 | 59 ± 9 nM | 
4 | CN(C)c1ccc2cc3ccc(N(C)C)cc3nc2c1 | 88 ± 8 nM | 
5 | Nc1c2ccccc2nc2ccccc12 |  | 2960 ± 240 nM
